Results reported in PubChem BioAssay AID330 (DTP/NCI, 2004).
Where “and” joins values, the source holds several entries; their conditions need not be identical. Equal entries are not always repeated. Inconclusive results and toxic doses are left out. The calls were made as follows: active = survival T/C of 150% or more; inactive = T/C below 125% in these data.

Test system: P388 leukemia ip, CD2F1 mice, survival T/C
Assay: NCI In Vivo Anticancer Drug Screen. Data for tumor model P388 Leukemia (intraperitoneal) in CD2F1 (CDF1) mice
Settings: endpoint: median survival time, higher = longer survival
Summary of the method: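 Mice carrying the transplanted tumor received test compound or vehicle. Survival was recorded in each group, and the value is the treated-group measurement divided by that of the vehicle-treated control group.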

[1] = dose: 50.0 mg/kg/injection, schedule: Q01DX005 (ip), vehicle: saline with Tween-80
[2] = dose: 100.0 mg/kg/injection, schedule: Q01DX005 (ip), vehicle: saline with Tween-80
[3] = dose: 200.0 mg/kg/injection, schedule: Q01DX005 (ip), vehicle: saline with Tween-80
[4] = dose: 50.0 mg/kg/injection, schedule: Q01DX009 (ip), vehicle: saline
[5] = dose: 60.0 mg/kg/injection, schedule: Q01DX005 (ip), vehicle: saline with Tween-80
[6] = dose: 120.0 mg/kg/injection, schedule: Q01DX005 (ip), vehicle: saline with Tween-80
[7] = dose: 50.0 mg/kg/injection, schedule: Q01DX009 (ip), vehicle: saline with Tween-80
[8] = dose: 100.0 mg/kg/injection, schedule: Q01DX009 (ip), vehicle: saline with Tween-80
[9] = dose: 200.0 mg/kg/injection, schedule: Q01DX009 (ip), vehicle: saline with Tween-80
[10] = dose: 400.0 mg/kg/injection, schedule: Q01DX009 (ip), vehicle: saline with Tween-80
[11] = dose: 100.0 mg/kg/injection, schedule: Q04DX003 (ip), vehicle: saline with Tween-80
[12] = dose: 200.0 mg/kg/injection, schedule: Q04DX003 (ip), vehicle: saline with Tween-80
[13] = dose: 25.0 mg/kg/injection, schedule: Q01DX005 (ip), vehicle: Klucel (hydroxypropylcellulose) (HPC)
[14] = dose: 50.0 mg/kg/injection, schedule: Q01DX005 (ip), vehicle: Klucel (hydroxypropylcellulose) (HPC)
[15] = dose: 100.0 mg/kg/injection, schedule: Q01DX005 (ip), vehicle: Klucel (hydroxypropylcellulose) (HPC)

Measured: T/C

OCCc1cc(Cl)no1
inactive: [1] 100 % of control | [2] 102 % of control | [3] 109 % of control

C=CCN(CC=C)C(CC(=O)C(C)(C)C)=NCC
inactive: dose: 12.5 mg/kg/injection, schedule: Q01DX009 (ip), vehicle: saline 104 % of control | dose: 25.0 mg/kg/injection, schedule: Q01DX009 (ip), vehicle: saline 106 % of control | [4] 100 % of control and 101 % of control

CC(C)C(CC(=O)O)C(=O)O (configuration not stated)
inactive: [1] 100 % of control | [2] 91 % of control | [3] 104 % of control

O=C(O)c1cc(-n2c(-c3ccccc3)cc3c2CCc2ccccc2-3)ccc1O
inactive: [1] 109 % of control | [2] 110 % of control

CN(C)P1(=O)OCC(C(C)(C)C)CN1c1ccccc1 (configuration not stated)
inactive: dose: 100.0 mg/kg/injection, schedule: Q04DX003 (ip), vehicle: Klucel (hydroxypropylcellulose) (HPC) 97 % of control | dose: 200.0 mg/kg/injection, schedule: Q04DX003 (ip), vehicle: Klucel (hydroxypropylcellulose) (HPC) 97 % of control

COC(=O)CCC(C(C)=O)C(=O)OC (configuration not stated)
inactive: dose: 60.0 mg/kg/injection, schedule: Q01DX005 (ip), vehicle: saline 105 % of control | dose: 120.0 mg/kg/injection, schedule: Q01DX005 (ip), vehicle: saline 110 % of control | dose: 240.0 mg/kg/injection, schedule: Q01DX005 (ip), vehicle: saline 107 % of control

CS/N=N/N=C(\c1ccccc1)N1CCOCC1
inactive: [5] 103 % of control | [6] 97 % of control

Cc1ccc(C)c(Nc2ccccc2[N+](=O)[O-])c1
inactive: [7] 103 % of control | [8] 108 % of control | [9] 100 % of control | [10] 112 % of control

CC(C)CCCCCCCCCCCCC(=O)NCC(=O)NC1C(C)OC(Nc2ncnc3c2ncn3C)C(O)C1O (configuration not stated)
inactive: dose: 1.56 mg/kg/injection, schedule: Q01DX009 (ip), vehicle: distilled water + Tween-80 98 % of control | dose: 3.13 mg/kg/injection, schedule: Q01DX009 (ip), vehicle: distilled water + Tween-80 95 % of control | dose: 6.25 mg/kg/injection, schedule: Q01DX009 (ip), vehicle: distilled water + Tween-80 101 % of control | dose: 12.5 mg/kg/injection, schedule: Q01DX009 (ip), vehicle: distilled water + Tween-80 98 % of control | dose: 25.0 mg/kg/injection, schedule: Q01DX009 (ip), vehicle: distilled water + Tween-80 90 % of control | dose: 50.0 mg/kg/injection, schedule: Q01DX009 (ip), vehicle: distilled water + Tween-80 91 % of control

NC(=O)c1ccc(=O)n(C2OC(CO)C(O)C2O)c1 (configuration not stated)
inactive: dose: 50.0 mg/kg/injection, schedule: Q04DX003 (ip), vehicle: saline with Tween-80 102 % of control | [11] 102 % of control | [12] 100 % of control | dose: 400.0 mg/kg/injection, schedule: Q04DX003 (ip), vehicle: saline with Tween-80 102 % of control

O=c1[nH]c2cc(Cl)ccc2nc1/C=C(\O)c1ccc(F)cc1
inactive: [5] 89 % of control | [6] 87 % of control | dose: 240.0 mg/kg/injection, schedule: Q01DX005 (ip), vehicle: saline with Tween-80 102 % of control

[Cl][Pt+2][Cl].[NH-]C(c1ccccc1)C([NH-])c1ccccc1 (configuration not stated)
inactive: dose: 1.56 mg/kg/injection, schedule: Q04DX002 (ip), vehicle: saline with Tween-80 112 % of control | dose: 3.12 mg/kg/injection, schedule: Q04DX002 (ip), vehicle: saline with Tween-80 103 % of control | dose: 3.13 mg/kg/injection, schedule: Q04DX002 (ip), vehicle: saline with Tween-80 111 % of control | dose: 6.25 mg/kg/injection, schedule: Q04DX002 (ip), vehicle: saline with Tween-80 117 % of control [middle of 4 runs]

CN1CC2(C)OC3(CC2(C)N1C)N(C)N(C)CC3(C)O (configuration not stated)
inactive: dose: 50.0 mg/kg/injection, schedule: Q01DX005 (ip), vehicle: saline 101 % of control | dose: 100.0 mg/kg/injection, schedule: Q01DX005 (ip), vehicle: saline 101 % of control | dose: 200.0 mg/kg/injection, schedule: Q01DX005 (ip), vehicle: saline 101 % of control

CSC(=NS(=O)(=O)c1ccc(C)cc1)SC
inactive: [4] 109 % of control | dose: 100.0 mg/kg/injection, schedule: Q01DX009 (ip), vehicle: saline 106 % of control | dose: 200.0 mg/kg/injection, schedule: Q01DX009 (ip), vehicle: saline 113 % of control

NC(N)=NC(N)=Nc1ccc2ccc3cccc4ccc1c2c34
inactive: [11] 106 % of control | [12] 111 % of control

CC1(c2cccs2)NC(=O)NC1=O (configuration not stated)
inactive: dose: 25.0 mg/kg/injection, schedule: Q01DX009 (ip), vehicle: saline with Tween-80 100 % of control | [7] 109 % of control | [8] 98 % of control | [9] 104 % of control | [10] 101 % of control

OCC1OC(n2c(=S)[nH]c3ccccc32)C(O)C1O (configuration not stated)
inactive: [5] 98 % of control | [6] 98 % of control

Nc1nc(=S)c2[nH]c(=S)n(C3OC(CO)C(O)C3O)c2[nH]1 (configuration not stated)
inactive: [13] 100 % of control | [14] 105 % of control | [15] 103 % of control | dose: 200.0 mg/kg/injection, schedule: Q01DX005 (ip), vehicle: Klucel (hydroxypropylcellulose) (HPC) 112 % of control

Cc1ccc(NC(=O)Nc2ncn[nH]2)c(C)c1
inactive: [7] 107 % of control | [8] 100 % of control | [9] 107 % of control

O=C1Nc2c(Cl)cc(Cl)cc2/C1=N/N=C/c1ccco1
inactive: [1] 101 % of control | [2] 104 % of control | [3] 104 % of control

O=S1(=O)CS(=O)(=O)OCCO1
active: dose: 6.25 mg/kg/injection, schedule: Q01DX005 (ip), vehicle: Klucel (hydroxypropylcellulose) (HPC) 155 % of control | dose: 9.0 mg/kg/injection, schedule: Q01DX005 (ip), vehicle: Klucel (hydroxypropylcellulose) (HPC) 162 % of control and 165 % of control | dose: 12.5 mg/kg/injection, schedule: Q01DX005 (ip), vehicle: Klucel (hydroxypropylcellulose) (HPC) 216 % of control | dose: 14.0 mg/kg/injection, schedule: Q01DX005 (ip), vehicle: Klucel (hydroxypropylcellulose) (HPC) 191 % of control (2×) and 200 % of control | [13] 267 % of control and 270 % of control | dose: 75.0 mg/kg/injection, schedule: Q01DX005 (ip), vehicle: Klucel (hydroxypropylcellulose) (HPC) 207 % of control and 588 % of control
inactive: dose: 3.12 mg/kg/injection, schedule: Q01DX005 (ip), vehicle: Klucel (hydroxypropylcellulose) (HPC) 124 % of control

CC(=O)n1c(Cl)c(/C=N/Nc2ccccc2[N+](=O)[O-])c2ccccc21
inactive: dose: 25.0 mg/kg/injection, schedule: Q01DX001 (ip), vehicle: Klucel (hydroxypropylcellulose) (HPC) 91 % of control | dose: 50.0 mg/kg/injection, schedule: Q01DX001 (ip), vehicle: Klucel (hydroxypropylcellulose) (HPC) 99 % of control | dose: 100.0 mg/kg/injection, schedule: Q01DX001 (ip), vehicle: Klucel (hydroxypropylcellulose) (HPC) 87 % of control and 91 % of control

CNC(=S)N/N=C/Cn1ccc(=O)[nH]c1=O
inactive: [14] 89 % of control | [15] 90 % of control

O=S(=O)(CS(=O)(=O)c1ccccc1Br)c1ccccc1Br
inactive: dose: 30.0 mg/kg/injection, schedule: Q01DX005 (ip), vehicle: Klucel (hydroxypropylcellulose) (HPC) 100 % of control | dose: 60.0 mg/kg/injection, schedule: Q01DX005 (ip), vehicle: Klucel (hydroxypropylcellulose) (HPC) 100 % of control | dose: 120.0 mg/kg/injection, schedule: Q01DX005 (ip), vehicle: Klucel (hydroxypropylcellulose) (HPC) 100 % of control | dose: 240.0 mg/kg/injection, schedule: Q01DX005 (ip), vehicle: Klucel (hydroxypropylcellulose) (HPC) 100 % of control

C#CCN(C)/N=N/c1nc[nH]c1C(N)=O
inactive: dose: 12.5 mg/kg/injection, schedule: Q01DX009 (ip), vehicle: Klucel (hydroxypropylcellulose) (HPC) 115 % of control | dose: 25.0 mg/kg/injection, schedule: Q01DX009 (ip), vehicle: Klucel (hydroxypropylcellulose) (HPC) 122 % of control | dose: 50.0 mg/kg/injection, schedule: Q01DX009 (ip), vehicle: Klucel (hydroxypropylcellulose) (HPC) 120 % of control | dose: 100.0 mg/kg/injection, schedule: Q01DX009 (ip), vehicle: Klucel (hydroxypropylcellulose) (HPC) 112 % of control

CS(C)=NS(C)(=O)=O
inactive: dose: 100.0 mg/kg/injection, schedule: Q01DX001 (ip), vehicle: saline 113 % of control | dose: 200.0 mg/kg/injection, schedule: Q01DX001 (ip), vehicle: saline 106 % of control | dose: 400.0 mg/kg/injection, schedule: Q01DX001 (ip), vehicle: saline 107 % of control
